Consider ten compounds from US5428051A, “Methods of combating pneumocystis carinii pneumonia and compounds useful therefor” (priority 1992, dated 1995).

The subject of data set [1] is Pneumocystis carinii. As to the kind of experiment: Treatment of Pneumocystis carinii pneumonia in rats: histologic scoring of lung cysts (GMS stain). The following applies: daily i.v., 14 days; for No. of animals with histologic score 0.5: 0.5 = less than 10 cysts per two sections; for No. of animals with histologic score 1: 1 = <10% of lung tissue involved; for No. of animals with histologic score 2: 2 = 10 to 25% of lung tissue involved; for No. of animals with histologic score 3: 3 = 26 to 50% of lung tissue involved; for No. of animals with histologic score 4: 4 = >50% of lung tissue involved; for Mean Histologic Score: score scale 0.5-4. Set-up: key to Mean Histologic Score: lung cyst score: 0.5 = <10 cysts, 4 = >50% of lung tissue involved. The data set is classed as in vivo, Sprague-Dawley rats. On the procedure: (§1) Induction and Treatment of Pneumocystis carinii in Sprague-Dawley Rats
(§2) Male Sprague-Dawley rats, barrier raised, non-certified virus free, weighing 150-200 g were obtained from Hilltop Laboratories and housed individually. Animals were begun on a low (8%) protein diet (ICN Biomedicals, Cincinnati, Ohio) and drinking water containing tetracycline (0.5 mg/ml) and dexamethasone (1.0 μg/ml). This treatment was given for the next 8 weeks, monitoring fluid intake daily and weighing animals weekly. Dilutions of the drinking solution were made when animals consumed too much fluid so as to prevent cortisone poisoning. At the beginning of the sixth week animals were divided into groups of eight or more animals each and the test compounds were administered daily by i.v. injection into the tail vein at the indicated dose for the next 14 days or orally by gavage for the next 14 days.
All animals were sacrificed at the end of the eighth week by chloroform inhalation and the right lung was inflated in situ with 10% formalin and fixed for histologic examination. The fixed lung tissue was sectioned longitudinally and stained with Grocott's methenamine silver (GMS) stain which selectively stains the walls of th P. carinii cysts. Stained sections were coded and each section was scored by 2 examiners using a blinded protocol. Sections were read and scored according to modification of known procedures (P. Walzer et al., Antimicrob. Agents. Chemother. 32: 896-905 (1988)) as follows: 0.5=less than 10 cysts counted per two fully examinec sections; 1=scattered cysts with <10% of lung tissue involved; 2=scattered cysts with limited intense focal involvement and 10 to 25% of lung tissue involved; 3=scattered cysts with numerous intense areas of focal involvement and 26 to 50% of lung tissue involved; 4=cysts found throughout the tissue with numerous very intense focal areas of involvement having >50% of lung tissue involved.
The Chi square goodness of fit was used to calculate the p values of each test group when compared to the saline-treated and pentamidine-treated groups. The statistical analysis was carried out using the StatView 512+ software package (Brainpower, Inc., Calabasas, Calif.) on a Macintosh II computer.

For data set [2], the system named is Pneumocystis carinii. As to the kind of experiment: Treatment of Pneumocystis carinii pneumonia in rats: cyst count in lung homogenate (cresyl violet). It counts as in vivo, Sprague-Dawley rats. The following applies: for response vs control in vivo at 5 mg/kg / response vs control in vivo at 10 mg/kg: Pneumocystis carinii, iv, 336 h, read-out: Cysts/g Lung (% of Control). Here is the method: as §1, §2
The left lung was weighed, ground through a #60 wire mesh, and suspended 1:10 (w/v) in Hank's balanced salts solution without cations (HBSS-) and 10 mM β-mercaptoethanol (β-Me). Slides were prepared by spotting 5 μl of lung homogenate diluted 1:10 in HBSS- with β-Me and allowed to air dry. The slides were stained with cresyl violet and the cysts were counted using a blinded protocol. The number of cysts/g of original lung tissue was calculated and the groups were reported as the percent of saline-treated controls.

For a further data set, the system named is Giardia lamblia. The data set can be described thus: In vitro activity against Giardia lamblia ([3H]-thymidine incorporation). The following applies: 42 hours, 37° C., read-out: IC50 ± S.D. In Vitro Antigiaridal Activity. It counts as cell-based, strain WB (ATCC #30957). On the procedure: In vitro Biological Activity of Bis-Benzimidazoles Against Giardia lamblia
In brief, Giardia lamblia, strain WB (ATCC #30957) was grown to early log phase in filter sterilized Keister's medium with 10% heat-inactivated fetal bovine serum and 50 μg/ml ampicillin and 50 μg/ml gentamicin sulfate. Assay medium was modified Keister's medium plus 5% heat-inactivated fetal bovine serum. The assay procedure was carried out in accordance with the following steps:
(1) (0 hours) Serial dilutions of diamidines suspended in assay medium were prepared in duplicate rows of a 96-well microtiter plate and 2.5×10^4 trophozoites were added to each well. Plates were placed in an anaerobic chamber, gassed with nitrogen, and incubated at 37° C.
(2) (24 hours) Added [methyl-^3 H]-thmidine (1-10 Ci/mmol) to yield 1.5-2 μCi/well.
(3) (42 hours) Harvested cells with multimash-type cell harvester onto glass microfiber paper. Washed and dried filters were counted using a scintillation counter to determine the incorporation of [^3 H]-thymidine.
(4) Data on uptake of [^3 H]-thymidine were fitted to a logistic-logarithmic concentration response function by a non-linear regression method and drug concentrations required to inhibit 50% incorporation of [^3 H]-thymidine were determined.

Data set [3] is described as follows: Toxicity of the test compounds in rats (graded by local, clinical and histologic criteria). The data set is classed as in vivo, Sprague-Dawley rats. Particulars: for Toxicity: 10.0 mg/kg, daily i.v., 14 days. On the procedure: as §2
Data set [4] relates to Pneumocystis carinii. As to the kind of experiment: Anti-PCP activity in rats. The data set is classed as in vivo, Sprague-Dawley rats.
The conditions of data set [5]: patients, intramuscular and intravenous routes; cited from earlier work.
Where [6] appears, read: daily i.v., 14 days, vs. saline-treated controls.
Setting [7] is: 10.0 mg/kg, daily i.v., 14 days, vs. saline-treated controls.

Like-named read-outs stand apart in the source and are kept apart here.

On to `N=C(N)c1ccc2nc(/C=C/c3nc4ccc(C(=N)N)cc4[nH]3)[nH]c2c1` [Compound 10, trans-1,2-bis[5-amidino-2-benzimidazolyl]ethene], for which, in the data set on Pneumocystis carinii [1] (5.0 mg/kg), the “No. of animals with histologic score 0.5” value amounted to 1 animals, the “No. of animals with histologic score 1” value was 5 animals, the “No. of animals with histologic score 2” value came to 5 animals and the “No. of animals with histologic score 3” value is 1 animals. Besides, in the data set with Pneumocystis carinii [1] (5.0 mg/kg), the “No. of animals with histologic score 4” value is 0 animals and the “Mean Histologic Score” value is 1.5. Also, in the data set on Pneumocystis carinii [2] (setting [6]), the response vs control in vivo at 5 mg/kg turned out to be 2.14%.

As usually defined, the IC50 is the concentration at which inhibition is half-maximal. As to `c1cc2[nH]c(CCCc3nc4cc(C5=NCCN5)ccc4[nH]3)nc2cc1C1=NCCN1` [Compound 6], in the data set with Pneumocystis carinii [1] (10.0 mg/kg), the “No. of animals with histologic score 0.5” value is listed as 1 animals, the “No. of animals with histologic score 1” value is reported as 7 animals, the “No. of animals with histologic score 2” value was 3 animals and the “No. of animals with histologic score 3” value was found to be 1 animals. Moreover, in the data set on Pneumocystis carinii [1] (10.0 mg/kg), the “No. of animals with histologic score 4” value is 0 animals and the “Mean Histologic Score” value is 1.4. Also, in the data set on Pneumocystis carinii [2] (setting [7]), the response vs control in vivo at 10 mg/kg amounted to 9.23%. Moreover, in the data set with Giardia lamblia (Giardia duodenalis), the IC50 amounted to 49.5 ± 7.8 µM.

In the case of `c1cc2[nH]c(CCCCc3nc4cc(C5=NCCN5)ccc4[nH]3)nc2cc1C1=NCCN1` [Compound 8], in the data set on Pneumocystis carinii [1] (10.0 mg/kg), the “No. of animals with histologic score 0.5” value is reported as 12 animals, the “No. of animals with histologic score 1” value was determined as 0 animals, the “No. of animals with histologic score 2” value was found to be 0 animals and the “No. of animals with histologic score 3” value was determined as 0 animals. For the same compound, in the data set on Pneumocystis carinii [1] (10.0 mg/kg), the “No. of animals with histologic score 4” value came out at 0 animals and the “Mean Histologic Score” value was found to be 0.5. Besides, in the data set with Pneumocystis carinii [2] (setting [7]), the response vs control in vivo at 10 mg/kg came to 0.07%. Moreover, in data set [3] (vs. pentamidine (parent compound)), the “toxicity relative to the parent compound” value is “significantly less toxic than the parent compound”. Further, the IC50 with Giardia lamblia (Giardia duodenalis) turned out to be 14.5 ± 3.5 µM. The “activity against PCP when administered orally” value with Pneumocystis carinii [4] (oral, daily dose of 25 mg/kg) is on record as “exhibited some activity against PCP”. Besides, in the data set on Pneumocystis carinii [4] (vs. pentamidine), the “potency as an anti-PCP agent relative to pentamidine” value was “over four times more potent”.

In the case of `N=C(N)c1ccc2nc(CCCc3nc4ccc(C(=N)N)cc4[nH]3)[nH]c2c1` [Compound 5, 1,3-bis[5-amidino-2-benzimidazolyl]propane], in the data set with Pneumocystis carinii [1] (10.0 mg/kg), the “No. of animals with histologic score 0.5” value is listed as 0 animals, the “No. of animals with histologic score 1” value was determined as 1 animals, the “No. of animals with histologic score 2” value was 1 animals and the “No. of animals with histologic score 3” value is on record as 7 animals. Besides, in the data set with Pneumocystis carinii [1] (10.0 mg/kg), the “No. of animals with histologic score 4” value worked out at 3 animals and the “Mean Histologic Score” value is given as 3.0. Moreover, the response vs control in vivo at 10 mg/kg in the data set on Pneumocystis carinii [2] (setting [7]) turned out to be 64.6%. The half-maximal inhibitory concentration (IC50) in the data set on Giardia lamblia (Giardia duodenalis) came to 32.5 ± 6.4 µM.

For the compound `N=C(N)c1ccc(OCCCCCOc2ccc(C(=N)N)cc2)cc1` [pentamidine isethionate], the “side effects / fatalities” value in data set [5] is “Some fatalities have been attributed to severe hypotension, hypoglycemia, and cardiac arrhythmias”.

As for `N=C(N)c1ccc2nc(CCc3nc4ccc(C(=N)N)cc4[nH]3)[nH]c2c1` [Compound 3, 1,2-bis[5-amidino-2-benzimidazolyl]ethane], in the data set with Pneumocystis carinii [1] (10.0 mg/kg), the “No. of animals with histologic score 0.5” value came to 7 animals, the “No. of animals with histologic score 1” value is recorded as 3 animals, the “No. of animals with histologic score 2” value worked out at 0 animals and the “No. of animals with histologic score 3” value stood at 0 animals. In the data set on Pneumocystis carinii [1] (10.0 mg/kg), the “No. of animals with histologic score 4” value is 0 animals and the “Mean Histologic Score” value is 0.7. Further, the response vs control in vivo at 10 mg/kg in the data set on Pneumocystis carinii [2] (setting [7]) was 2.05%. Further, the half-maximal inhibitory concentration (IC50) with Giardia lamblia (Giardia duodenalis) came out at 0.33 ± 0.15 µM.

For the compound `N=C(N)c1ccc2nc(Cc3nc4ccc(C(=N)N)cc4[nH]3)[nH]c2c1` [Compound 1, bis[5-amidino-2-benzimidazolyl]methane], in the data set on Pneumocystis carinii [1] (10.0 mg/kg), the “No. of animals with histologic score 0.5” value came to 7 animals, the “No. of animals with histologic score 1” value stood at 1 animals, the “No. of animals with histologic score 2” value is listed as 0 animals and the “No. of animals with histologic score 3” value was determined as 0 animals. In the data set with Pneumocystis carinii [1] (10.0 mg/kg), the “No. of animals with histologic score 4” value is 0 animals and the “Mean Histologic Score” value amounted to 0.6. Further, the Toxicity in data set [3] turned out to be 0. Further, the 50% inhibitory concentration (IC50) in the data set with Giardia lamblia (Giardia duodenalis) was determined as 307 ± 28.3 µM.

On to “1,4-bis[5-amidino-2-benzimidazolyl]propane [Compound 7]”, for which, in the data set with Pneumocystis carinii [1] (10.0 mg/kg), the “No. of animals with histologic score 0.5” value is reported as 10 animals, the “No. of animals with histologic score 1” value came to 2 animals, the “No. of animals with histologic score 2” value was 0 animals and the “No. of animals with histologic score 3” value was determined as 0 animals. For the same compound, in the data set with Pneumocystis carinii [1] (10.0 mg/kg), the “No. of animals with histologic score 4” value stood at 0 animals and the “Mean Histologic Score” value amounted to 0.6. Moreover, the “Cysts/g Lung (% of Control)” value with Pneumocystis carinii [2] (setting [7]) is 1.67 % of Control. The same compound displayed a Toxicity in data set [3] of 0. Also, in the data set with Giardia lamblia, the IC50 is 8.15 ± 6.9 µM.

As for `N=C(N)c1ccc(OCCCCCOc2ccc(C(=N)N)cc2)cc1` [Pentamidine, reference compound], in the data set on Pneumocystis carinii [1] (10.0 mg/kg), the “No. of animals with histologic score 0.5” value turned out to be 12 animals, the “No. of animals with histologic score 1” value worked out at 38 animals, the “No. of animals with histologic score 2” value came out at 17 animals and the “No. of animals with histologic score 3” value is given as 4 animals. Further, the “No. of animals with histologic score 4” value in the data set on Pneumocystis carinii [1] (10.0 mg/kg) is recorded as 0 animals. In addition, the response vs control in vivo at 10 mg/kg in the data set on Pneumocystis carinii [2] is 3.13%.

Take `N=C(N)c1ccc2nc(CCCCCCCCc3nc4ccc(C(=N)N)cc4[nH]3)[nH]c2c1` [Compound 9, 1,8-bis[5-amidino-2-benzimidazolyl]octane]: in the data set with Pneumocystis carinii [1] (5.0 mg/kg), the “No. of animals with histologic score 0.5” value came to 1 animals, the “No. of animals with histologic score 1” value turned out to be 0 animals, the “No. of animals with histologic score 2” value was found to be 8 animals and the “No. of animals with histologic score 3” value amounted to 3 animals. In the data set with Pneumocystis carinii [1] (5.0 mg/kg), the “No. of animals with histologic score 4” value was 0 animals and the “Mean Histologic Score” value turned out to be 2.1. Besides, the response vs control in vivo at 5 mg/kg in the data set on Pneumocystis carinii [2] (setting [6]) amounted to 31.8%. Moreover, the IC50 with Giardia lamblia (Giardia duodenalis) stood at 0.04 ± 0.01 µM.
